Data on 20 molecules can be found in PubChem BioAssay AID248 (DTP/NCI, 2004).

Several values for one entry are separate records, joined by “and”; a condition that tells them apart may be missing. Identical values can stand only once. Inconclusive results and toxic doses are left out.

For this assay, the system named is L1210 leukemia ip in BDF1 mice, survival T/C. Put plainly: NCI In Vivo Anticancer Drug Screen. Data for tumor model L1210 Leukemia (intraperitoneal) in B6D2F1 (BDF1) mice. The note with it: endpoint: mean survival time, higher = longer survival. The method in brief: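 Transplanted-tumor mice were given test agent; controls received vehicle only. Survival readings from the two groups were divided (treated over control).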

[1] abbreviates: dose: 100.0 mg/kg/injection, schedule: Q04DX003 (ip), vehicle: saline.
[2] abbreviates: dose: 200.0 mg/kg/injection, schedule: Q04DX003 (ip), vehicle: saline.
[3] abbreviates: dose: 100.0 mg/kg/injection, schedule: Q01DX001 (ip), vehicle: saline.
Where [4] appears, read: dose: 200.0 mg/kg/injection, schedule: Q01DX001 (ip), vehicle: saline.
The mark [5] stands for this setting: dose: 400.0 mg/kg/injection, schedule: Q01DX001 (ip), vehicle: saline.
[6] abbreviates: dose: 100.0 mg/kg/injection, schedule: Q04DX003 (ip), vehicle: Klucel (hydroxypropylcellulose) (HPC).
The mark [7] stands for this setting: dose: 200.0 mg/kg/injection, schedule: Q04DX003 (ip), vehicle: Klucel (hydroxypropylcellulose) (HPC).
[8] abbreviates: dose: 400.0 mg/kg/injection, schedule: Q04DX003 (ip), vehicle: Klucel (hydroxypropylcellulose) (HPC).
The mark [9] stands for this setting: dose: 100.0 mg/kg/injection, schedule: Q01DX001 (ip), vehicle: carboxymethylcellulose (CMC).
Where [10] appears, read: dose: 200.0 mg/kg/injection, schedule: Q01DX001 (ip), vehicle: carboxymethylcellulose (CMC).
[11] abbreviates: dose: 400.0 mg/kg/injection, schedule: Q01DX001 (ip), vehicle: carboxymethylcellulose (CMC).
Where [12] appears, read: dose: 100.0 mg/kg/injection, schedule: Q04DX003 (ip), vehicle: saline with Tween-80.
Setting [13] is: dose: 200.0 mg/kg/injection, schedule: Q04DX003 (ip), vehicle: saline with Tween-80.
[14] abbreviates: dose: 400.0 mg/kg/injection, schedule: Q04DX003 (ip), vehicle: saline with Tween-80.

`COc1ccc(OC)c(NC(=O)Nc2ccc(Cl)cc2[N+](=O)[O-])c1`: the T/C is 91 % of control (dose: 100.0 mg/kg/injection, schedule: Q01DX009 (ip), vehicle: saline with Tween-80); 97 % of control (dose: 200.0 mg/kg/injection, schedule: Q01DX009 (ip), vehicle: saline with Tween-80); 89 % of control (dose: 400.0 mg/kg/injection, schedule: Q01DX009 (ip), vehicle: saline with Tween-80).

Turning to `COc1ccc2c(c1OC)C(=O)OC2c1ccc(O)c(Br)c1` (stereo not drawn), the T/C is, setting by setting: (dose: 100.0 mg/kg/injection, schedule: Q01DX009 (ip), vehicle: alcohol) 95 % of control; under setting [1], 109 % of control; (dose: 200.0 mg/kg/injection, schedule: Q01DX009 (ip), vehicle: alcohol) 97 % of control; under setting [2], 106 % of control; (dose: 400.0 mg/kg/injection, schedule: Q01DX009 (ip), vehicle: alcohol) 95 % of control; (dose: 400.0 mg/kg/injection, schedule: Q04DX003 (ip), vehicle: saline) 101 % of control.

Consider `CNC(=O)c1cc(NC(=O)Nc2ccc(C3=NCCN3)cc2)cc(NC(=O)Nc2ccc(C3=NCCN3)cc2)c1`, for which the T/C (dose: 15.0 mg/kg/injection, schedule: Q01DX Z (ip), vehicle: saline) is 122 % of control; the T/C (dose: 60.0 mg/kg/injection, schedule: Q01DX Z (ip), vehicle: saline) was 216 % of control; the T/C (dose: 60.0 mg/kg/injection, schedule: Q01DX Z (oral), vehicle: saline) was 103 % of control; the T/C (dose: 120.0 mg/kg/injection, schedule: Q01DX Z (ip), vehicle: saline) was 114 % of control; the T/C (dose: 120.0 mg/kg/injection, schedule: Q01DX Z (oral), vehicle: saline) is 98 % of control; the T/C (dose: 240.0 mg/kg/injection, schedule: Q01DX Z (oral), vehicle: saline) is 106 % of control. In addition, the T/C (dose: 480.0 mg/kg/injection, schedule: Q01DX Z (oral), vehicle: saline) is 93 % of control.

Take `CC1COP(Oc2ccccc2)O1` (stereo not drawn): the T/C under setting [3] was 113 % of control, the T/C under setting [4] was 115 % of control and the T/C under setting [5] was 96 % of control.

On to `COC(=O)c1ccccc1NC(=O)N(c1ccccc1)c1ccccc1`, for which the T/C was 93 % of control (dose: 100.0 mg/kg/injection, schedule: Q04DX002 (ip), vehicle: Klucel (hydroxypropylcellulose) (HPC)); 97 % of control (dose: 200.0 mg/kg/injection, schedule: Q04DX002 (ip), vehicle: Klucel (hydroxypropylcellulose) (HPC)); 101 % of control (dose: 400.0 mg/kg/injection, schedule: Q04DX002 (ip), vehicle: Klucel (hydroxypropylcellulose) (HPC)).

Consider `CCNC(=S)S.[Zn+2]`, for which the T/C is 102 % of control (dose: 1.0 mg/kg/injection, schedule: Q01DX015 (ip), vehicle: saline); 100 % of control (dose: 2.0 mg/kg/injection, schedule: Q01DX015 (ip), vehicle: saline); 102 % of control (dose: 4.0 mg/kg/injection, schedule: Q01DX015 (ip), vehicle: saline); 108 % of control (dose: 8.0 mg/kg/injection, schedule: Q01DX015 (ip), vehicle: saline); 95 % of control (dose: 10.0 mg/kg/injection, schedule: Q01DX001 (ip), vehicle: carboxymethylcellulose (CMC)); 97 % of control (dose: 20.0 mg/kg/injection, schedule: Q01DX001 (ip), vehicle: carboxymethylcellulose (CMC)). For the same molecule, the T/C is 95 % of control (dose: 40.0 mg/kg/injection, schedule: Q01DX001 (ip), vehicle: carboxymethylcellulose (CMC)) and 97 % of control (dose: 80.0 mg/kg/injection, schedule: Q01DX001 (ip), vehicle: carboxymethylcellulose (CMC)).

As to `ClC1=C(Br)C(Br)(Br)C(=C(Br)Br)C1(Br)Br`, the T/C is 96 % of control (dose: 100.0 mg/kg/injection, schedule: Q01DX009 (ip), vehicle: saline sonified); 106 % of control under setting [6]; 94 % of control (dose: 200.0 mg/kg/injection, schedule: Q01DX009 (ip), vehicle: saline sonified); 103 % of control under setting [7]; 102 % of control (dose: 400.0 mg/kg/injection, schedule: Q01DX009 (ip), vehicle: saline sonified); 97 % of control under setting [8].

In the case of `CC(=O)NC(c1ccccc1)C(NC(=O)c1ccccc1)c1ccccc1` (stereo not drawn), the T/C was 92 % of control (dose: 100.0 mg/kg/injection, schedule: Q01DX001 (ip), vehicle: saline with Tween-80); 94 % of control (dose: 200.0 mg/kg/injection, schedule: Q01DX001 (ip), vehicle: saline with Tween-80); 89 % of control (dose: 400.0 mg/kg/injection, schedule: Q01DX001 (ip), vehicle: saline with Tween-80).

As for `N#CC(c1ccccc1)c1cccc(C(=O)O)c1` (stereo not drawn), the T/C is 105 % of control under setting [9], 86 % of control under setting [10] and 91 % of control under setting [11].

As for `CC(C)(CO)c1ccccc1`, the T/C was 104 % of control under setting [3], 104 % of control under setting [4] and 107 % of control under setting [5].

As to `Nc1ccc(NS(=O)(=O)CCl)cc1`, the T/C runs as follows: (dose: 100.0 mg/kg/injection, schedule: Q04DX002 (ip), vehicle: saline with Tween-80) 111 % of control; (dose: 200.0 mg/kg/injection, schedule: Q04DX002 (ip), vehicle: saline with Tween-80) 116 % of control; (dose: 400.0 mg/kg/injection, schedule: Q04DX002 (ip), vehicle: saline with Tween-80) 96 % of control.

Turning to `Cc1cc(C)c(C(=O)Oc2ccc3ccccc3c2)c(C)c1`, the T/C is 92 % of control under setting [12], 92 % of control under setting [13] and 86 % of control under setting [14].

As for `O=c1oc2c(CN3CCOCC3)c(O)ccc2c2c1CCCC2`, the T/C by setting is: under setting [9], 86 % of control; under setting [10], 96 % of control; under setting [11], 91 % of control.

As for `Clc1ccc(SCN(CSc2ccc(Cl)cc2)Cc2ccccc2)cc1`, the T/C runs as follows: under setting [3], 91 % of control; under setting [4], 90 % of control.

Turning to `COC(=O)C1(C(=O)OC)C=CCCC1=O`, the T/C under setting [6] is 108 % of control, the T/C under setting [7] was 107 % of control and the T/C under setting [8] is 96 % of control.

In the case of `CN(N)c1ncnc2c1ncn2C1OC(CO)C(O)C1O` (stereo not drawn), the T/C runs as follows: under setting [12], 114 % of control; under setting [13], 106 % of control; under setting [14], 95 % of control.

As to `O=[N+]([O-])c1cccc(Cl)c1/C=N/Nc1nnc(N/N=C/c2c(Cl)cccc2[N+](=O)[O-])c2ccccc12`, the T/C is 96 % of control (dose: 50.0 mg/kg/injection, schedule: Q01DX001 (ip), vehicle: saline); 96 % of control under setting [3]; 98 % of control under setting [4]; 98 % of control under setting [5].

Take `Cc1ccc(N2CCOC2=O)cc1N1CCOC1=O`: the T/C (dose: 25.0 mg/kg/injection, schedule: Q04DX003 (ip), vehicle: other) is 97 % of control; the T/C (dose: 50.0 mg/kg/injection, schedule: Q04DX003 (ip), vehicle: other) was 104 % of control; the T/C (dose: 100.0 mg/kg/injection, schedule: Q04DX003 (ip), vehicle: other) was 103 % of control; the T/C under setting [12] was 94 % of control.

Regarding `CN(C1=NS(=O)(=O)N=C(N(C)c2ccccc2)O1)c1ccccc1`, the T/C by setting is: under setting [6], 102 % of control; under setting [7], 102 % of control; under setting [8], 98 % of control.

For `CN1CC(COC(=O)CCc2ccc(N(CCCl)CCCl)cc2)C=C2c3cccc4[nH]cc(c34)C[C@H]21` (stereo partly drawn), the T/C was 104 % of control (dose: 3.12 mg/kg/injection, schedule: Q01DX009 (ip), vehicle: saline); 108 % of control (dose: 6.25 mg/kg/injection, schedule: Q01DX009 (ip), vehicle: saline); 110 % of control and 114 % of control (dose: 12.5 mg/kg/injection, schedule: Q01DX009 (ip), vehicle: saline); 117 % of control (dose: 25.0 mg/kg/injection, schedule: Q01DX009 (ip), vehicle: saline); 93 % of control and 107 % of control (dose: 25.0 mg/kg/injection, schedule: Q04DX003 (ip), vehicle: saline); 117 % of control (dose: 50.0 mg/kg/injection, schedule: Q01DX009 (ip), vehicle: saline). In addition, the T/C was 109 % of control and 117 % of control (dose: 50.0 mg/kg/injection, schedule: Q04DX003 (ip), vehicle: saline); 91 % of control (dose: 100.0 mg/kg/injection, schedule: Q01DX009 (ip), vehicle: saline); 112 % of control under setting [1]; 124 % of control under setting [2].
